Data as given in PMC9794833, “Ligand recognition and activation of neuromedin U receptor 2” (Nature Communications, 2022).
“And” between values parts separate entries of the source, which are not always exact repeats. Equal values may be shown once. Read-outs that look alike come from different tables or passages of the source. Where a SMILES comes first, the peptide text is derived from it. [ ]: non-standard residue; d: D form. The star is where a group is joined. Propanoyl(3-cHex) = O=C(CCC1CCCCC1)*; Dap = NC[C@H](N)C(=O)O

Key:
NMU2 H43W = target: T1, NMU2 H43W (Homo sapiens, UniProt Q9GZQ4, H43W); assay: TRUPATH assay, NMU2 mutant H43W; assay type: cell-based
T1 construct: HA signal peptide (N); expressed in transfected cells; host or cells: HEK 293F
Description: (§1) The plasmids of Gαi1, Gβ3, and Gγ9 used for the TRUPATH assay were purchased from Addgene (TRUPATH Kit, #1000000163). NMU2 constructs of WT and mutants were constructed into a PTT5 vector (Invitrogen) with an N-terminal HA signal peptide followed by a Flag tag. HEK 293F cells were transiently transfected with WT or mutants of NMU2, Gαi1, Gβ3, and Gγ9 at an […] ratio of 4:1:1:1 with a total of 3500 ng plasmid DNA using a transfection reagent (PEI MAX 2000, Polysciences) and cultivated at 37 °C with 5 % CO2. Cells were collected after 48-h transfection. The expression level of the receptor was measured by incubating 10 μl cells with 15 μl TBS buffer supplemented with 4% bovine serum albumin, 20% (v/v) viability staining solution7-AAD (Invitrogen, Cat#00-6993-50), and ANTI-FLAG M2-FITC antibody (Sigma, F4049; 1:100 diluted by TBS) at 4 °C for 20 min. After incubation, 175 μl TBS buffer was added, and the fluorescence signal on the cell surface was detected by an FCM (flow cytometry) reader (Millipore). The cells were diluted with 1× HBSS (Hank’s balanced salt solution) balanced buffer supplemented with 25 mM HEPES, pH 7.4, and seeded onto the 96-well opaque cell culture plates (Beyotime) at a density of 18,000 cells per well by 60 μl. Freshly prepared 50 μM coelenterazine 400a (Nanolight Technologies) was added into the well by 10 μl. After a 5 min equilibration time in the darkness, plates were then read in a Synerg^TM H1 microplate reader (BioTek) with excitation at 395 nm and emission at 410 and 515 nm by serially three times. Then, 30 μl of 3.3× agonists were added into the wells with a gradient final concentration from 10^−4–10^−13 M. Plates were read immediately again by serially five times. Data were processed and analyzed following the method in the literature by using GraphPad Prism 8.0.

NMU2 H43E = target: T2, NMU2 H43E (Homo sapiens, UniProt Q9GZQ4, H43E); assay: TRUPATH assay, NMU2 mutant H43E; assay type: cell-based; settings: H43E
T2 construct: HA signal peptide (N); expressed in transfected cells; host or cells: HEK 293F
Description: as §1

NMU2 [1] = target: T3, NMU2 (Homo sapiens, UniProt Q9GZQ4); set-up: method as in PMID 24999562, PMID 25815150, PMID 28548497; settings: potency for NMU2; cited from earlier work
T3 construct: HA signal peptide (N); expressed in transfected cells; host or cells: HEK 293F

NMU1 = system: NMU1; set-up: method as in PMID 24999562, PMID 25815150, PMID 28548497; settings: cited from earlier work
NMU2 [2] = target: T3, NMU2; assay: TRUPATH Gαi1βγ biosensor assay, WT NMU2; assay type: cell-based; settings: WT; for CPN 116–induced G protein activation of NMU2: single replicates, in % (unit assumed)
Description: as §1

NMU2 N306W = target: T4, NMU2 N306W (Homo sapiens, UniProt Q9GZQ4, N306W); assay: TRUPATH assay, NMU2 mutant N306W; assay type: cell-based
T4 construct: HA signal peptide (N); expressed in transfected cells; host or cells: HEK 293F
Description: as §1

NMU2 N306Q = target: T5, NMU2 N306Q (Homo sapiens, UniProt Q9GZQ4, N306Q); assay: TRUPATH assay, NMU2 mutant N306Q; assay type: cell-based
T5 construct: HA signal peptide (N); expressed in transfected cells; host or cells: HEK 293F
Description: as §1

NMU2 A302H = target: T6, NMU2 A302H (Homo sapiens, UniProt Q9GZQ4, A302H); assay: TRUPATH assay, NMU2 mutant A302H; assay type: cell-based
T6 construct: HA signal peptide (N); expressed in transfected cells; host or cells: HEK 293F
Description: as §1

[3] = read-out: pEC50 mean±SEM (converted)
[4] = earlier manuscript version, peer review file

T1 sequence (Q9GZQ4 whole entry H43W): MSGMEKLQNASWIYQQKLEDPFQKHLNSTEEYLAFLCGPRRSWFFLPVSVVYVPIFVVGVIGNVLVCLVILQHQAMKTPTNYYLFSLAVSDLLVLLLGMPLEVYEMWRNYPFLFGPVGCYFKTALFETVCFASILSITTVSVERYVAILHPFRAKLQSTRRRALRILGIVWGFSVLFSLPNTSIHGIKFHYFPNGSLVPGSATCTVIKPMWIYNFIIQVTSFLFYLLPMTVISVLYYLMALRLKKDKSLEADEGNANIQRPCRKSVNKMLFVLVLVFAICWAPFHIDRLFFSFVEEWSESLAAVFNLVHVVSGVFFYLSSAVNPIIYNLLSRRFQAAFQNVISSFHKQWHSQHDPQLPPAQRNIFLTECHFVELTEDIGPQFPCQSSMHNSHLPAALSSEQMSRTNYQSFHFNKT
T5 sequence (Q9GZQ4 whole entry N306Q): as the sequence (Q9GZQ4 whole entry H43W) above, with W43H, N306Q counted along it
T4 sequence (Q9GZQ4 whole entry N306W): as the sequence (Q9GZQ4 whole entry H43W) above, with W43H, N306W counted along it
T6 sequence (Q9GZQ4 whole entry A302H): as the sequence (Q9GZQ4 whole entry H43W) above, with W43H, A302H counted along it
T2 sequence (Q9GZQ4 whole entry H43E): as the sequence (Q9GZQ4 whole entry H43W) above, with W43E counted along it
T3 sequence (Q9GZQ4 whole entry): as the sequence (Q9GZQ4 whole entry H43W) above, with W43H counted along it

With `CC(C)C[C@H](NC(=O)CCC1CCCCC1)C(=O)N[C@@H](CC(C)C)C(=O)N[C@@H](CN)C(=O)N1CCC[C@H]1C(=O)N[C@@H](CCCNC(=N)N)C(=O)N[C@@H](CC(N)=O)C(N)=O` [CPN 116] ({Propanoyl(3-cHex)}-LL[Dap]PRN-NH2; N-terminus assumed) the “EC50 ratio EC50(mutant)/EC50(WT)” value (NMU2 H43W) was 4, the “Span (window between Emax and minimal agonist response)” value (“Span” for short) (NMU2 H43W) was 113±8 % of WT and the “G protein activation (TRUPATH), dose-response point” value (shortened to “G protein activation (TRUPATH)”) (NMU2 H43W; Log [agonist] M -4) was 70.3208 and 118.253 and 100.643 and 93.456. For the same molecule, the “G protein activation (TRUPATH)” value (NMU2 H43W; Log [agonist] M -5) was 117.081 and 116.835 and 123.722 and 102.53, the EC50 (NMU2 H43W; read-out: EC50) was 328 nM and the EC50 (NMU2 H43W; [3]) was 331 nM. For the same molecule, the “EC50 ratio EC50(mutant)/EC50(WT)” value (NMU2 H43E) was 34 and ~30, the “Span” value (NMU2 H43E) was 68±10 % of WT and the “G protein activation (TRUPATH)” value (NMU2 H43E; Log [agonist] M -4) was 54.8659 and 69.4702 and 83.0554. The reduction of potency (NMU2 H43E; [4]) was “about 40 fold”, the EC50 (NMU2 H43E; read-out: EC50) was 3010 nM and the EC50 (NMU2 H43E; [3]) was 3020 nM. The EC50 (NMU2 [1]) was 6.6 nM, the “activation of NMU1” value (NMU1) was “without obvious activation of NMU1” and the “EC50 ratio EC50(mutant)/EC50(WT)” value (NMU2 [2]) was 1. The “Span” value (NMU2 [2]) was 100±5 % of WT, the “CPN 116–induced G protein activation of NMU2” value (NMU2 [2]; Log [CPN 116] M -4) was 124.271 and 109.389 and 104.836 and 98.7874 and 114.415 and 92.1354 and 98.8516 and 96.9846 and 129.092 and the “CPN 116–induced G protein activation of NMU2” value (NMU2 [2]; Log [CPN 116] M -5) was 81.0668 and 90.6105 and 83.9029 and 70.7281 and 97.1643 and 105.033 and 97.1976 and 102.389 and 91.9125. The “CPN 116–induced G protein activation of NMU2” value (NMU2 [2]; Log [CPN 116] M -6) was 123.537 and 69.0158 and 98.755 and 109.275 and 101.527 and 90.1601 and 88.5457 and 99.457 and 76.0968 and 66.3324, the “CPN 116–induced G protein activation of NMU2” value (NMU2 [2]; Log [CPN 116] M -7) was 58.8924 and 38.0271 and 51.0097 and 20.9117 and 20.6245 and 99.7769 and 42.6311 and 75.7485 and 28.5134 and 61.3823 and the “CPN 116–induced G protein activation of NMU2” value (NMU2 [2]; Log [CPN 116] M -8) was 61.8786 and 27.1582 and 20.07 and 29.5038 and 13.1206 and 29.1828 and -9.383 and 21.3054 and 11.8363 and 17.7072. For the same molecule, the “CPN 116–induced G protein activation of NMU2” value (NMU2 [2]; Log [CPN 116] M -9) was 19.9062 and -6.919 and 9.364 and -2.803 and 20.3603 and -10.3226 and 21.8665 and -7.72 and -11.2532 and 17.6747, the “CPN 116–induced G protein activation of NMU2” value (NMU2 [2]; Log [CPN 116] M -10) was 41.8708 and 6.201 and -13.4099 and 3.958 and 1.871 and 13.514 and 0.4422 and 6.532 and 9.793 and -10.7717 and the “CPN 116–induced G protein activation of NMU2” value (NMU2 [2]; Log [CPN 116] M -11) was -45.0449 and -20.5889 and -0.1978 and -15.7237 and -24.3777 and 3.048 and -8.327 and 4.148 and -6.043 and -10.0645. For the same molecule, the EC50 (NMU2 [2]; agonist-induced G protein activation, HEK 293F, read-out: EC50) was 88 nM, the EC50 (NMU2 [2]; [3]) was 89.1 nM and the “CPN 116–induced G protein activation of NMU2” value (NMU2 N306W; Log [CPN 116] M -4, single replicates) was -39.3918 and -40.1037 and -18.108. For the same molecule, the “CPN 116–induced G protein activation of NMU2” value (NMU2 N306W; Log [CPN 116] M -5, single replicates) was -35.463 and -12.1167 and -20.5536, the “CPN 116–induced G protein activation of NMU2” value (NMU2 N306W; Log [CPN 116] M -6, single replicates) was -13.9347 and -29.6651 and the “CPN 116–induced G protein activation of NMU2” value (NMU2 N306W; Log [CPN 116] M -7, single replicates) was -42.0373 and -15.8433 and -22.9653. For the same molecule, the “CPN 116–induced G protein activation of NMU2” value (NMU2 N306W; Log [CPN 116] M -8, single replicates) was -43.5336 and -18.6278, the “CPN 116–induced G protein activation of NMU2” value (NMU2 N306W; Log [CPN 116] M -9, single replicates) was -58.7333 and -19.6009 and -22.809 and the “CPN 116–induced G protein activation of NMU2” value (NMU2 N306W; Log [CPN 116] M -10, single replicates) was -49.0206 and -44.7808 and -17.6453. The “CPN 116–induced G protein activation of NMU2” value (NMU2 N306W; Log [CPN 116] M -11, single replicates) was -6.043 and -10.0645 and -20.5889, the “EC50 ratio EC50(mutant)/EC50(WT)” value (NMU2 N306Q) was 34 and ~30 and the “Span” value (NMU2 N306Q) was 103±8 % of WT. For the same molecule, the “G protein activation (TRUPATH)” value (NMU2 N306Q; Log [agonist] M -4) was 92.4083 and 98.1528 and 132.361 and 88.4481, the “G protein activation (TRUPATH)” value (NMU2 N306Q; Log [agonist] M -5) was 86.2104 and 99.9961 and 102.907 and 71.1922 and the reduction of potency (NMU2 N306Q; [4]) was “about 40 fold”. The EC50 (NMU2 N306Q; read-out: EC50) was 3030 nM, the EC50 (NMU2 N306Q; [3]) was 3020 nM and the “EC50 ratio EC50(mutant)/EC50(WT)” value (NMU2 A302H) was 10. The “Span” value (NMU2 A302H) was 57±12 % of WT, the EC50 (NMU2 A302H; read-out: EC50) was 890 nM and the EC50 (NMU2 A302H; [3]) was 891 nM.
